Earlier results, collected in patent US20080131503A1 (priority 2005, published 2008).

Settings: oral

Systemic availability of HMG-CoA reductase inhibitory activity: approximately 30%
Structure (SMILES): CC(C)c1c(C(=O)Nc2ccccc2)c(-c2ccccc2)c(-c2ccc(F)cc2)n1CC[C@@H](O)C[C@@H](O)CC(=O)O [Atorvastatin]
